This assay relates to C2C12 cells. Briefly: Alkaline Phosphatase (ALP) functional activity assay in C2C12 cells. The conditions noted are these: normalized to DMSO treatment; for activation at 0.5 µM: Mus musculus, C2C12, 144 h. The class given is cell-based, Mouse. On the procedure: Alkaline Phosphatase (ALP) Functional Activity Assay: C2C12 cells were plated into 12-well plates with 7,000 cells/well in 1 mL growth media. […] 1, 2, 3, or 4 in 0.1% DMSO was added (500 nM). Half the media was exchanged with fresh media containing compound every 48 hrs. After 6 days, media was removed, ALP Lysis Buffer (10 mM Tris-HCl pH 8.0, 1 mM MgCl2, and 1% Triton X100) added, and cell lysate obtained (10 min incubation at RT) by centrifugation (5 min at 3500× g at 4° C.). Para-nitrophenol phosphate (pNPP) (2 mg/mL) was incubated with 50 μl cell lysate (10 mins, 37° C.). After addition of […] 0.02 N NaOH, absorbance OD405 was measured. Protein concentration was determined by Bradford protein assay. Results of ALP activity were plotted as nM pNP hydrolyzed/mg total protein. After normalizing control samples (i.e., DMSO-treated samples) to one-fold, the fold-changes were plotted to indicate the relative ALP activity. […] This protocol was applied to hMSC and E15 cells as well.

[1] abbreviates: compounds of Formula VI, absence of matrix.
Where [2] appears, read: compounds of Formula VI, presence of calcium phosphate matrix.
[3] abbreviates: compounds of Formula II or IV, absence of matrix.
Setting [4] is: compounds of Formula II or IV, presence of calcium phosphate matrix.

Take `COc1cc(N(C)C)ccc1C=CC(=O)C1CCCC(=Cc2ccc(N(C)C)cc2OC)C1=O` (stereo not shown) [Compound 59, 2-(4-N,N-dimethylamino-2-methoxybenzylidene)-6-(3-(4-N,N-dimethylamino-2-methoxyphenyl)acryloyl)cyclohexanone]: under setting [1], the “ALP activity −matrix” value is “− (<5%)”. The “ALP activity +matrix” value under setting [2] is on record as “++ (50-100%)”.

With `C[C@H]1C[C@@H](Nc2ccccc2)c2ccccc2N1` (relative stereo) [Compound 7, cis-2-methyl-N-phenyl-1,2,3,4-tetrahydroquinolin-4-amine], the activation at 0.5 µM runs as follows: under setting [3], 5 to 50%; under setting [4], 5 to 50%.

For the molecule `COc1ccc(C(=O)N2c3ccc(F)cc3[C@@H](N(C(=O)c3ccc(OC)cc3)c3ccc(F)cc3)C[C@@H]2C)cc1` (relative stereo) [Compound 30, trans-1-(p-methoxybenzoyl)-2-methyl-6-fluoro-N-(p-fluorophenyl)-N-(p-methoxybenzoyl)-1,2,3,4-tetrahydroquinolin-4-amine], the activation at 0.5 µM under setting [3] is less than 5% and the activation at 0.5 µM under setting [4] is 5 to 50%.

With `COc1ccc(F)cc1C=CC(O)=C1CCCC(=Cc2cc(F)ccc2OC)C1=O` [Compound 56, 2-(5-Fluoro-2-methoxybenzylidene)-6-(3-(5-fluoro-2-methoxyphenyl)-1-hydroxyallylidene) cyclohexanone], the activation at 0.5 µM runs as follows: under setting [1], less than 5%; under setting [2], greater than 100%.

For the molecule `C[C@H]1C[C@@H](Nc2ccc(F)cc2)c2cc(F)ccc2N1C(=O)c1ccccc1` (relative stereo) [Compound 23, cis-1-benzoyl-2-methyl-6-fluoro-N-(p-fluorophenyl)-1,2,3,4-tetrahydroquinolin-4-amine], the activation at 0.5 µM lay within 50 to 100% under setting [3] and 5 to 50% under setting [4].

In the case of `O=C(CCc1ccc(O)cc1)C1CCCC(Cc2ccc(O)cc2)C1=O` (stereo not shown) [Compound 62, 2-(4-Hydroxybenzyl)-6-(3-(4-hydroxyphenyl)propanoyl)cyclohexanone], the activation at 0.5 µM under setting [1] is less than 5% and the activation at 0.5 µM under setting [2] fell in the range of 5 to 50%.

Regarding `CN(C)c1ccc(C=CC(=O)C=C(O)C=Cc2ccc(N(C)C)cc2)cc1` [Compound 47, 1,7-Bis-(4-dimethylaminophenyl)-5-hydroxy-hepta-1,4,6-trien-3-one], the activation at 0.5 µM under setting [1] was greater than 100% and the activation at 0.5 µM under setting [2] is less than 5%.

With `COc1cc(C=CC(=O)C=C(O)C=Cc2ccc(OC(=O)[C@@H](N)C(C)C)c(OC)c2)ccc1OC(=O)[C@@H](N)C(C)C` [Compound 71, (2S,2′S)—O,O′-(3-hydroxy-5-oxohepta-1,3,6-triene-1,7-diyl)bis(2-methoxy-4,1-phenylene) bis(2-amino-3-methylbutanoate)], the “ALP activity −matrix” value under setting [1] is on record as “+ (5-50%)”. Also, under setting [2], the “ALP activity +matrix” value is given as “+ (5-50%)”.

On to `COc1ccc(N[C@H]2C[C@H](C)Nc3ccc(OC)cc32)cc1` (relative stereo) [Compound 12, trans-2-methyl-6-methoxy-N-(p-methoxyphenyl)-1,2,3,4-tetrahydroquinolin-4-amine], for which the activation at 0.5 µM was greater than 100% under setting [3] and 5 to 50% under setting [4].

Consider `NCCCCC(N)C(=O)Oc1ccc(C=CC(=O)CC(=O)C=Cc2ccc(OC(=O)C(N)CCCCN)cc2)cc1` [Compound 69, (2S,2′S)—O,O′-(3,5-Dioxohepta-1,6-diene-1,7-diyl)bis(4,1-phenylene) bis(2,6-bis-amino)hexanoate], for which the “ALP activity −matrix” value under setting [1] was “− (<5%)”. The “ALP activity +matrix” value under setting [2] is “+ (5-50%)”.

For the molecule “cis-1-acetyl-4-(phenylamino)-1,2,3,4-tetrahydroquinoline [Compound 20]”, the “ALP activity −matrix” value under setting [3] was “− (<5%)”. Besides, the “ALP activity +matrix” value under setting [4] is given as “++ (50-100%)”.

In the case of “(2S,2′S)4-(3-(3-(4-(2-amino-3-methylbutanoyloxy)-3-methoxybenzylidene)-2-oxocyclohexyl)-3-oxoprop-1-enyl)-2-methoxyphenyl bis(2-(tert-butoxycarbonylamino)-3-methylbutanoate) [Compound 78]”, the “ALP activity −matrix” value under setting [1] is recorded as “− (<5%)”. Moreover, the “ALP activity +matrix” value under setting [2] is recorded as “+ (5-50%)”.

As for `CC(=O)N1c2ccc(F)cc2[C@@H](Nc2ccc(F)cc2)C[C@@H]1C` (relative stereo) [Compound 22, trans-1-acetyl-2-methyl-6-fluoro-N-(p-fluorophenyl)-1,2,3,4-tetrahydroquinolin-4-amine], the activation at 0.5 µM by setting is: under setting [3], 5 to 50%; under setting [4], less than 5%.

Turning to `CN(C)c1ccc(C=CC(=O)C2CCCC(=Cc3ccc(N(C)C)cc3)C2=O)cc1` (stereo not shown) [Compound 57, 2-(4-N,N-dimethylaminobenzylidene)-6-(3-(4-N,N-dimethylaminophenyl)acryloyl)cyclohexanone], the “ALP activity −matrix” value under setting [1] is “− (<5%)”. In addition, the “ALP activity +matrix” value under setting [2] is reported as “++ (50-100%)”.

Take `Cc1ccc(N[C@@H]2C[C@H](C)Nc3ccc(C)cc32)cc1` (relative stereo) [Compound 5, cis-2,6-dimethyl-N-(p-methylphenyl)-1,2,3,4-tetrahydroquinolin-4-amine]: the activation at 0.5 µM runs as follows: under setting [3], 5 to 50%; under setting [4], 5 to 50%.

With `CC(=O)N1c2ccc(F)cc2[C@H](Nc2ccc(F)cc2)C[C@@H]1C` (relative stereo) [Compound 21, cis-1-acetyl-2-methyl-6-fluoro-N-(p-fluorophenyl)-1,2,3,4-tetrahydroquinolin-4-amine], the activation at 0.5 µM reads like this: under setting [3], 5 to 50%; under setting [4], 5 to 50%.

Consider `COc1cc(N(C)C)ccc1C=CC(=O)C=C(O)C=Cc1ccc(N(C)C)cc1OC` [Compound 39, 1,7-Bis(4-dimethylamino-2-methoxyphenyl). 5-hydroxy-hepta-1,4,6-trien-3-one], for which, under setting [1], the “ALP activity −matrix” value is on record as “+++ (>100%)”. Also, the “ALP activity +matrix” value under setting [2] is “− (<5%)”.

As for `COc1ccc(F)cc1C=CC(=O)C=C(O)C=Cc1cc(F)ccc1OC` [Compound 53, 1,7-Bis-(5-fluoro-2-methoxyphenyl)-5-Hydroxy-hepta-1,4,6-trien-3-one], the activation at 0.5 µM was less than 5% under setting [1] and less than 5% under setting [2].

For `C[C@H]1C[C@H](Nc2ccc(F)cc2)c2cc(F)ccc2N1C(=O)c1ccccc1` (relative stereo) [Compound 24, trans-1-benzoyl-2-methyl-6-fluoro-N-(p-fluorophenyl)-1,2,3,4-tetrahydroquinolin-4-amine], the activation at 0.5 µM was 50 to 100% under setting [3] and less than 5% under setting [4].

Turning to `Cc1ccc(N[C@@H]2C[C@H](C)N(C(=O)c3ccccc3)c3ccc(C)cc32)cc1` (relative stereo) [Compound 18, cis-1-benzoyl-2,6-dimethyl-N-(p-methylphenyl)-1,2,3,4-tetrahydroquinolin-4-amine], the activation at 0.5 µM by setting is: under setting [3], greater than 100%; under setting [4], less than 5%.

Take `O=C(C=CC1CCCCC1)C1CCCC(=CC2CCCCC2)C1=O` (stereo not shown) [Compound 64, 2-(3-Cyclohexylacryloyl)-6-(cyclohexylmethylene)cyclohexanone]: the activation at 0.5 µM is, setting by setting: under setting [1], 5 to 50%; under setting [2], 5 to 50%.

`C[C@H]1C[C@H](N(C(=O)c2ccccc2)c2ccc(F)cc2)c2cc(F)ccc2N1C(=O)c1ccccc1` (relative stereo) [Compound 29, trans-1-benzoyl-2-methyl-6-fluoro-N-(p-fluorophenyl)-N-benzoyl-1,2,3,4-tetrahydroquinolin-4-amine]: the activation at 0.5 µM by setting is: under setting [3], greater than 100%; under setting [4], less than 5%.

Take `CC(C)[C@H](NC(=O)OC(C)(C)C)C(=O)Oc1ccc(C=CC(O)=CC(=O)C=Cc2ccc(O)cc2)cc1` [Compound 83, (S)-4-(3-hydroxy-7-(4-hydroxyphenyl)-5-oxohepta-1,3,6-trienyl)phenyl 2-N-Boc-amino-3-methylbutanoate]: the “ALP activity −matrix” value under setting [1] was “+ (5-50%)”. Further, the “ALP activity +matrix” value under setting [2] is given as “− (<5%)”.

For the molecule `Cc1ccc(N[C@H]2C[C@H](C)N(C(=O)c3ccccc3)c3ccc(C)cc32)cc1` (relative stereo) [Compound 19, trans-1-benzoyl-2,6-dimethyl-N-(p-methylphenyl)-1,2,3,4-tetrahydroquinolin-4-amine], the activation at 0.5 µM under setting [3] is less than 5% and the activation at 0.5 µM under setting [4] is less than 5%.

On to `COc1ccc(C(=O)N2c3ccc(F)cc3[C@H](Nc3ccc(F)cc3)C[C@@H]2C)cc1` (relative stereo) [Compound 25, cis-1-(p-methoxybenzoyl)-2-methyl-6-fluoro-N-(p-fluorophenyl)-1,2,3,4-tetrahydroquinolin-4-amine], for which the activation at 0.5 µM by setting is: under setting [3], 5 to 50%; under setting [4], 5 to 50%.

On to `Cc1ccc(N(C(=O)c2ccccc2)[C@H]2C[C@H](C)N(C(=O)c3ccccc3)c3ccc(C)cc32)cc1` (relative stereo) [Compound 28, trans-1-benzoyl-2,6-dimethyl-N-(p-methylphenyl)-N-benzoyl-1,2,3,4-tetrahydroquinolin-4-amine], for which the activation at 0.5 µM is, setting by setting: under setting [3], less than 5%; under setting [4], less than 5%.

These data come from US11596716B2, “Compounds and matrices for use in bone growth and repair” (Human BioMolecular Research Institute, priority 2013, dated 2023).
